BindingDB's records for doi:10.1021/jm010087e (The University of Western Australia, 2001)

Experiment: Inhibitory activity against clostridium histolyticum collagenase

SMILES	Ki [µM]
CC(C(=O)O)N(Cc1ccccc1[N+](=O)[O-])C(=O)Nc1ccc(F)cc1 (configuration not stated) [2-[3-(4-Fluoro-phenyl)-1-(2-nitro-benzyl)-ureido]-propionic acid]	6.2
CC(C(=O)NO)N(Cc1ccccc1[N+](=O)[O-])S(=O)(=O)c1cccc([N+](=O)[O-])c1 (configuration not stated) [N-Hydroxy-2-[(3-nitro-benzenesulfonyl)-(2-nitro-benzyl)-amino]-propionamide]	0.01
CC(C(=O)O)N(Cc1ccccc1[N+](=O)[O-])S(=O)(=O)c1ccc([N+](=O)[O-])cc1 (configuration not stated) [2-[(4-Nitro-benzenesulfonyl)-(2-nitro-benzyl)-amino]-propionic acid]	5
CC(C(=O)NO)N(Cc1ccccc1[N+](=O)[O-])C(=O)NS(=O)(=O)c1ccc(Cl)cc1 (configuration not stated) [2-[({[(4-chlorophenyl)sulfonyl]amino}carbonyl)(2-nitrobenzyl)amino]-N-hydroxypropanamide]	0.007
CC(C(=O)NO)N(Cc1ccccc1[N+](=O)[O-])S(=O)(=O)c1ccc([N+](=O)[O-])cc1 (configuration not stated) [N-Hydroxy-2-[(4-nitro-benzenesulfonyl)-(2-nitro-benzyl)-amino]-propionamide]	0.013
CC(C(=O)O)N(Cc1ccccc1[N+](=O)[O-])S(=O)(=O)C(F)(F)C(F)(F)C(F)(F)C(F)(F)C(F)(F)C(F)(F)C(F)(F)C(F)(F)F (configuration not stated) [2-[(Heptadecafluorooctane-1-sulfonyl)-(2-nitro-benzyl)-amino]-propionic acid]	1.7
Cc1ccc(S(=O)(=O)NC(=O)N(Cc2ccccc2[N+](=O)[O-])C(C)C(=O)O)cc1 (configuration not stated) [2-[({[(4-methylphenyl)sulfonyl]amino}carbonyl)(2-nitrobenzyl)amino]propanoic acid]	3.1
